Legend:
[1] = human
[2] = human, serum
[3] = human, serum; remark: listed apart in the source
[4] = Highest frequency of moderate liver toxicity observed during clinical trials, expressed as a percentage. [column '% BIOL' in source]; details: human
[5] = human; remark: listed apart in the source
[6] = human; remark: listed apart in the source
[7] = human; remark: listed apart in the source
[8] = human; remark: listed apart in the source
[9] = human; remark: listed apart in the source
[10] = Highest frequency of acute liver toxicity observed during clinical trials, expressed as a percentage. [column '% AIGUE' in source]; details: human
[11] = human, serum, 4383 h
[12] = human; remark: listed apart in the source
[13] = human; remark: listed apart in the source
[14] = human; remark: listed apart in the source
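Throughout, for Hepatotoxicity (association with vascular disease): count of indexed literature references reporting vascular liver injury in humans, e.g. peliosis hepatitis, hepatic veno-occlusive disease or Budd-Chiari syndrome.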
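Throughout, for Hepatotoxicity (benign tumour): value is a count of indexed literature references citing a benign tumour confirmed by histopathology.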
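Throughout, for Hepatotoxicity (choleostasis): human cholestatic liver injury, shown by histopathology or by peak ALT or AST elevation over alkaline phosphatase ratio below 2, value counts indexed literature reports.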
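Throughout, for Hepatotoxicity (chronic liver disease): chronic liver injury confirmed by histopathology or persistently raised serum aminotransferase activity beyond 6 months, value given as the count of indexed literature references.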
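Throughout, for Hepatotoxicity (cirrhosis): value is a count of indexed literature references reporting cirrhosis confirmed by histopathology.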
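Throughout, for Hepatotoxicity (cytolytic): human cytolytic liver injury, shown by histopathology or by a ratio above 5 of peak ALT or AST elevation to alkaline phosphatase elevation, value counts indexed references.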
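Throughout, for Hepatotoxicity (granulomatous hepatitis): value is a count of indexed literature references reporting granulomatous liver disease confirmed by histopathology.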
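Throughout, for Hepatotoxicity (malignant tumour): malignant tumour confirmed by histopathology, value gives the count of indexed literature references reporting it.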
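Throughout, for Hepatotoxicity (severe hepatitis): human clinical data: severe hepatitis, meaning potentially life-threatening liver failure or clinically observed cases, the value counts how many indexed literature references report it.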
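Throughout, for Hepatotoxicity (steatosis): steatosis confirmed by histopathology, value is the count of indexed references.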

Row | SMILES | Hepatotoxicity (malignant tumour) [1] | Hepatotoxicity (moderate) [2] | Hepatotoxicity (acute) [3] | Hepatotoxicity (moderate) [4] [%] | Hepatotoxicity (cirrhosis) [5] | Hepatotoxicity (steatosis) [6] | Hepatotoxicity (granulomatous hepatitis) [7] | Hepatotoxicity (benign tumour) [8] | Hepatotoxicity (choleostasis) [9] | Hepatotoxicity (acute) [10] [%] | Hepatotoxicity (chronic liver disease) [11] | Hepatotoxicity (cytolytic) [12] | Hepatotoxicity (severe hepatitis) [13] | Hepatotoxicity (association with vascular disease) [14] | Hepatotoxicity (moderate) ([4]; Liver) [%] | Hepatotoxicity (granulomatous hepatitis) ([7]; Liver) | Hepatotoxicity (choleostasis) ([9]; Liver) | Hepatotoxicity (acute) ([10]; Liver) [%] | Hepatotoxicity (cytolytic) ([12]; Liver) | Hepatotoxicity (severe hepatitis) ([13]; Liver)
1 | C=C(OC)C(=O)Nc1cc(OC)c(OC)cc1C(=O)O[C@H]1C[C@H](O[C@@H]2C(=O)C(NC(=O)OC)=C3/C(=C\CSSSC)[C@]2(O)C#C/C=C\C#C[C@@H]3O[C@@H]2O[C@H](C)[C@@H](NO[C@H]3C[C@H](O)[C@H](SC)[C@@H](C)O3)[C@H](O)[C@H]2O[C@H]2C[C@H](OC)[C@@H](NC(C)C)CO2)O[C@@H](C)[C@H]1O [ESPERAMICIN A1] | 0 | 1 | 0 | 10.7 | 0 | 0 | 0 | 0 | 0 | 0 | 0 | 0 | 0 | 0 |  |  |  |  |  | 
2 | C#CC(O)(/C=C/Cl)CC (centres undefined) [ETHCHLORVYNOL] | 0 | 0 | 2 | 0 | 0 | 0 | 0 | 0 | 2 | 0 | 0 | 0 | 0 | 0 |  |  |  |  |  | 
3 | CCN1C(=O)NC(c2ccccc2)C1=O (centres undefined) [ETHOTOIN] | 0 | 1 | 0 | 2 | 0 | 0 | 0 | 0 | 0 | 0 | 0 | 0 | 0 | 0 |  |  |  |  |  | 
4 | CC(O)(P(=O)(O)O)P(=O)(O)O [ETIDRONIC ACID] | 0 | 1 | 0 | 8.7 | 0 | 0 | 0 | 0 | 0 | 0 | 0 | 0 | 0 | 0 |  |  |  |  |  | 
5 | CC(C)(Oc1ccc(Cl)cc1)C(=O)OCCOC(=O)c1cccnc1 [ETOFIBRATE] | 0 | 1 | 0 | 0 | 0 | 0 | 0 | 0 | 0 | 0 | 0 | 0 | 0 | 0 |  |  |  |  |  | 
6 | COc1ccc(CCN(C)CCCOc2ccc(S(=O)(=O)c3c(C(C)C)cn4ccccc34)cc2)cc1OC [FANTOFARONE] | 0 | 1 | 0 | 2.7 | 0 | 0 | 0 | 0 | 0 | 0 | 0 | 0 | 0 | 0 |  |  |  |  |  | 
7 | C[C@@H](O)[C@H]1C(=O)N2C(C(=O)O)=C([C@H]3CCCO3)S[C@H]12 [FAROPENEM] | 0 | 39 | 0 | 20 | 0 | 0 | 0 | 0 | 0 | 0 | 0 | 0 | 0 | 0 |  |  |  |  |  | 
8 | Nc1ncn([C@@H]2O[C@H](CO)[C@@H](O)[C@@H]2O)c(=O)n1 [FAZARABINE] | 0 | 1 | 0 |  | 0 | 0 |  | 0 |  |  | 0 |  |  | 0 | 46.4 | 0 | 0 | 0 | 0 | 0
9 | CCOC(=O)C1=C(C)NC(C)=C(C(=O)OC)C1c1cccc(Cl)c1Cl (centres undefined) [FELODIPINE] | 0 | 3 | 0 |  | 0 | 0 | 0 | 0 | 0 |  | 0 | 0 |  | 0 | 20 |  |  | 0 |  | 0
10 | O=C(O)Cc1ccccc1Oc1ccc(Cl)cc1Cl [FENCLOFENAC] | 0 | 1 | 0 | 1 | 0 | 0 | 0 | 0 | 0 | 0 | 0 | 0 | 0 | 0 |  |  |  |  |  | 
11 | CC(C)(C)NC(=O)[C@H]1CC[C@H]2[C@@H]3CC[C@H]4NC(=O)C=C[C@]4(C)[C@H]3CC[C@]12C [FINASTERIDE] | 0 | 1 | 0 | 9 | 0 | 0 | 0 | 0 | 0 | 0 | 0 | 0 | 0 | 0 |  |  |  |  |  | 

— ChEMBL document CHEMBL3137667, “[Drug-induced liver injury; fourteenth updated edition of the bibliographic database of liver injuries and related drugs]” (Gastroenterol Clin Biol, 2004)
